SMILES strings stand for the structures. Read-outs that look alike come from different tables or passages of the source.

Four compounds from US20230043863A1, “HETEROAROMATIC DERIVATIVES FOR USE AS REGULATOR, PREPARATION METHOD THEREFOR AND USE THEREOF” (JIANGSU HANSOH PHARMACEUTICAL GROUP CO., LTD., priority 2018, published 2023) can be followed below.

One series has as its target JAK1 (Homo sapiens, UniProt P23458). Briefly: JAK kinase activity inhibition, TR-FRET (JAK1). Type of series: biochemical. The following applies: TR-FRET kinase assay. In short, it runs like this:
(§1)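 TR-FRET read (≈620 and 665 nm) after EDTA quench and 1-24 h antibody detection at RT. Kinase 0.1-20 nM, peptide substrate + ATP, 0.5-5 h RT reaction in HEPES 50-250 mM, MgCl2 5-20 mM. IC50 from 4-parameter fit vs DMSO and no-kinase controls.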

For a further series, the target named is TYK2 (Homo sapiens, UniProt P29597). Briefly: JAK kinase activity inhibition, TR-FRET (TYK2). The class given is biochemical. Conditions: TR-FRET kinase assay. Put shortly: as §1
Chain of TYK2 (P29597 whole entry): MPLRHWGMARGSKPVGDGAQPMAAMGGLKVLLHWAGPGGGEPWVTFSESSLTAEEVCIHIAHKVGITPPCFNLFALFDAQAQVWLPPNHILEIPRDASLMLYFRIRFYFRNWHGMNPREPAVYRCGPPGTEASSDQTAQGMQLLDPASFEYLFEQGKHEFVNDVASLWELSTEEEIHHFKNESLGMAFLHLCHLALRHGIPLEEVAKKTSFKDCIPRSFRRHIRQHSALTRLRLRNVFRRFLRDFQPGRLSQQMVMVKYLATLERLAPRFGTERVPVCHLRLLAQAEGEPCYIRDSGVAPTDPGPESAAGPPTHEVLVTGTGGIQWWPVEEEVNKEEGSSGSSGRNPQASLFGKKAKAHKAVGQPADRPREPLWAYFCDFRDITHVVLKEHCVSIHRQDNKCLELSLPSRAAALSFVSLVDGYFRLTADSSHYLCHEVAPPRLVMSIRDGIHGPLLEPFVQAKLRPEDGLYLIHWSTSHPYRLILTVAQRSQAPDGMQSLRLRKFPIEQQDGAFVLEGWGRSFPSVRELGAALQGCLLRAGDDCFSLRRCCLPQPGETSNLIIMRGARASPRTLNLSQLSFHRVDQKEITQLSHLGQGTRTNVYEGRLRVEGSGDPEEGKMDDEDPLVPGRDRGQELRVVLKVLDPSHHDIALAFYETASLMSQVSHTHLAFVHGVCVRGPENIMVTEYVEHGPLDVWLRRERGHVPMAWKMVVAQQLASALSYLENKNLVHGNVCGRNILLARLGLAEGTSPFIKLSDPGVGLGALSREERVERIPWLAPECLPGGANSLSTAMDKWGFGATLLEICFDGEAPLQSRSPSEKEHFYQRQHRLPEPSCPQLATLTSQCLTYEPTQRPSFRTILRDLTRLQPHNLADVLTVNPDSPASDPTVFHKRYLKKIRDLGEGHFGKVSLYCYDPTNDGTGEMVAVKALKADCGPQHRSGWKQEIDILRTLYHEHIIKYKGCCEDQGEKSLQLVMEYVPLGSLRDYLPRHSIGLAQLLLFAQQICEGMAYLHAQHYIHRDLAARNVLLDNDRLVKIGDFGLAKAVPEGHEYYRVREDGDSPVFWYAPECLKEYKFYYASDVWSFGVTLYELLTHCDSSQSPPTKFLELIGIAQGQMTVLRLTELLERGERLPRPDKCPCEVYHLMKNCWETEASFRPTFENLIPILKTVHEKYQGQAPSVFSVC
The test system of series [1] is JAK-STAT signal pathway of U266 cells. The series is described as follows: Inhibition of cellular JAK-STAT signal pathway (STAT3 phosphorylation) in U266 cells. The class given is cell-based, human. The following applies: Homo sapiens, U-266, INF-a 1000 U/mL stimulation. Put shortly: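 U266 cells (100-300 K/well) preincubated 2 h at room temperature with serially diluted compound, then stimulated 15 min with IFN-α at 1000 U/mL final. After lysis, STAT3 phosphorylation read by LANCE Ultra TR-FRET (Eu antibody 0.5 nM, ULight antibody 5 nM, overnight) at 665 nm; IC50 from 4-parameter fit of inhibition versus DMSO and negative controls.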

A short description of series [2]: Balb/C mouse pharmacokinetics (plasma, colon, ileum). Type of series: in vivo. Conditions: male, po, Balb/C mice, p.o. 5 mg/kg; for Cmax: read-out: Blood concentration Cmax; for AUC(0-t): read-out: Curve area AUC0-t; for MRT: read-out: Mean detention time MRT; for Tmax: read-out: Time to peak tmax; for AUC(0-inf): read-out: Curve area AUC0-∞; for half-life: read-out: Half life period t1/2 (converted). From the text: Balb/C mouse was used as the test animal, the pharmacokinetic behavior in mice (plasma and colon, ileum tissue) was studied after oral administering the embodiment 1, embodiment 60, embodiment 169, embodiment 170, embodiment 171, embodiment 179, embodiment 191, embodiment 213, embodiment 214, embodiment 237, embodiment 238, embodiment 244, embodiment 246, embodiment 247, embodiment 257, embodiment 260, embodiment 262, embodiment 263, embodiment 267, embodiment 277, embodiment 278, embodiment 279, embodiment 288, embodiment 295, embodiment 299 and embodiment 301 at a dose of 5 mg/kg. After analyzing the drug concentration in the colon and ileum, the ratio of the drug concentration in the colon to that in ileum, and the ratio of the drug concentration in the colon to that in the plasma, the compounds with excellent PK were selected for further research.
12 Balb/C mice in each group, male, Shanghai Jiesjie Experimental Animal Co., Ltd., animal production license number (SCXK (Shanghai) 2013-0006 N0.311620400001794).
12 Balb/C mice in each group, male; p.o. after one night fast; the dose was 5 mg/kg; the administration volume was 10 mL/kg.
At 0, 0.5, 1, 2, 3, 5 and 7 hours before and after the administration, the mice were executed by CO2 and 0.2 mL of blood was collected from the heart, placed in an EDTA-K2 test tube, and centrifuged at 6000 rpm at 4° C. for 6 minutes to separate the plasma, which was then stored at −80° C. The ileum was taken close to the cecum end with a length of about 4-5 cm, and the colon was also taken close to the cecum end with a length of about 2-3 cm, weighed and placed in a 2 mL centrifuge tube, then stored at −80° C.
1) 40 uL of plasma sample was precipitated by adding 160 uL of acetonitrile, mixed and centrifuged at 3500×g for 5-20 minutes.
2) 30 μL of plasma and intestinal homogenate sample were precipitated by adding 90 of acetonitrile containing internal standard (100 ng/mL), mixed and centrifuged at 13000 rpm for 8 minutes.
3) 70 μL of the supernatant solution after treatment was collected and 70 μL of water was added thereto, vortexed and mixed for 10 minutes, and then 20 μL was collected to analyze the concentration of the test compound by LC/MS/MS. LC/MS/MS analysis instrument: AB Sciex API 4000 Qtrap.
Liquid phase conditions: Shimadzu LC-20AD Pump
Chromatographic column: Agilent ZORBAX XDB-C18 (50×2.1 mm, 3.5 μm) mobile phase: 0.1% formic acid aqueous solution as A solution, acetonitrile as B solution
Elution time: 0-4.0 minutes, the eluent is as follows:
The main pharmacokinetic parameters were calculated with WinNonlin 6.1, and the results of mouse pharmacokinetic experiments are shown in Table 3:
NA refers to none detected or not being tested (the detection limit of blood concentration was 1 ng/mL, when the Cmax in the blood test is NA, then NA in the blood test index refers to none detected; when the Cmax in the blood test is higher than the quantitative limit 1 ng/mL, then NA in the blood test index refers to not being tested; NA in the tissues (colon and ileum) refers to not being tested).

Chain of JAK1 (P23458 whole entry): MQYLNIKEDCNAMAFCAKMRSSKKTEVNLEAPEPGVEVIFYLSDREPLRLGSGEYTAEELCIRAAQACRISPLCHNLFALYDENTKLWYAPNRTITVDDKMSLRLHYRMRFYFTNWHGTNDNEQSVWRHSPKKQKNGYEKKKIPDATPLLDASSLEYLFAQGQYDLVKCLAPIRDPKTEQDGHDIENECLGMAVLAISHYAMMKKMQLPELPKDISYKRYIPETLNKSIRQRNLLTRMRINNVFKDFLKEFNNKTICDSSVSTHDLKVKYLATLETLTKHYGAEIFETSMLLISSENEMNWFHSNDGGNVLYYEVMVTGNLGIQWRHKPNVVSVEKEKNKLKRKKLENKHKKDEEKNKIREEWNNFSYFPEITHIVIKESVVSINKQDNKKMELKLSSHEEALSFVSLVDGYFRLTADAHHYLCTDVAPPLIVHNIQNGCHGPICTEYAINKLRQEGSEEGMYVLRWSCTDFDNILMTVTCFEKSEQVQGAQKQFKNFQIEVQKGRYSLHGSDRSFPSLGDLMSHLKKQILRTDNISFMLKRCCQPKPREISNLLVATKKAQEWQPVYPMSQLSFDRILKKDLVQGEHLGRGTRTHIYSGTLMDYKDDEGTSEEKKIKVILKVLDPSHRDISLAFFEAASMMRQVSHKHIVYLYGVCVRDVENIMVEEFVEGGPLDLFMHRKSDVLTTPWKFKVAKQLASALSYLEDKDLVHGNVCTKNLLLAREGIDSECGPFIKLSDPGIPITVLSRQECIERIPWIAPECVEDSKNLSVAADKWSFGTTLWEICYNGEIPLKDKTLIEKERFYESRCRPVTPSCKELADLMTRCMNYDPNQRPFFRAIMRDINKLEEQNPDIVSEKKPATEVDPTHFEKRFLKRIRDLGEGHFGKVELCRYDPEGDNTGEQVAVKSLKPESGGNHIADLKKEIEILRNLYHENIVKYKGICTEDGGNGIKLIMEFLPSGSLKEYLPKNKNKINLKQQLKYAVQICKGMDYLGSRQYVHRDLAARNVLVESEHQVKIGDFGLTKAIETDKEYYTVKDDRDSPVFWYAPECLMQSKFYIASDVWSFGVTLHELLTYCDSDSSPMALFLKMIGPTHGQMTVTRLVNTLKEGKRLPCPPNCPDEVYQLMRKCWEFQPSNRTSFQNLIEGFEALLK

As for `Cc1cc(Nc2nc(N[C@@H]3C[C@H]4CCC[C@@H](C3)N4S(=O)(=O)c3ccccn3)nc3sccc23)n[nH]1` [Embodiment 267], the concentration for half-maximal inhibition (IC50) on JAK1 was 0.13 nM. In addition, on TYK2, the IC50 came out at 0.39 nM. The IC50 in series [1] came out at 18 nM. In series [2] (colon), the Cmax is 1.27 µg/mL, the AUC(0-t) was 5.61 µg·h/mL, the MRT worked out at 4.4 h and the time to peak (Tmax) worked out at 5 h. Besides, in series [2] (ileum), the Cmax came to 12.2 µg/mL, the AUC(0-t) was found to be 20.7 µg·h/mL, the AUC(0-inf) stood at 20.7 µg·h/mL and the half-life is 0.53 h. In addition, in series [2] (ileum), the mean residence time MRT worked out at 1.24 h and the Tmax worked out at 1 h.

For `Cc1cc(Nc2nc(N[C@@H]3C[C@H]4CCC[C@@H](C3)N4C(=O)CN3CCOCC3)nc3ccsc23)n[nH]1` [Embodiment 288, 1-((3-exo)-3-((4-((5-methyl-1H-pyrazol-3-yl)amino)thieno[3,2-d]pyrimidin-2-yl)amino)-9-azabicyclo[3.3.1]non-9-yl)-2-morpholinoethane-1-one], at JAK1, the 50% inhibitory concentration (IC50) was determined as 0.27 nM. Besides, the concentration for half-maximal inhibition (IC50) at TYK2 turned out to be 8.09 nM. This compound also yielded a concentration for half-maximal inhibition (IC50) in series [1] of 4.03 nM. In series [2] (plasma, blood), the Cmax is 0.011 µg/mL, the AUC(0-t) is 0.0215 µg·h/mL, the AUC(0-inf) was 0.0245 µg·h/mL and the half-life is 2.6 h. In series [2] (plasma, blood), the mean residence time MRT turned out to be 2.5 h and the Tmax came to 2 h. In addition, in series [2] (colon), the Cmax was found to be 0.676 µg/mL, the AUC(0-t) came out at 2.9 µg·h/mL, the mean residence time MRT was 3.91 h and the Tmax worked out at 3 h. Also, in series [2] (ileum), the Cmax turned out to be 7.38 µg/mL, the AUC(0-t) was 17.6 µg·h/mL, the MRT worked out at 2.89 h and the Tmax turned out to be 3 h.

Turning to `Cc1cc(Nc2nc(N[C@@H]3C[C@H]4CC[C@@H](C3)N4CCC#N)nc3c2cnn3C)n[nH]1` [Embodiment 295, 3-((3-exo)-3-((1-methyl-4-((5-methyl-1H-pyrazol-3-yl)amino)-1H-pyrazolo[3,4-d]pyrimidin-6-yl)amino)-8-azabicyclo[3.2.1]oct-8-yl)propionitrile], the IC50 on JAK1 amounted to 0.3 nM; at TYK2, 10.8 nM; in series [1], 3.63 nM. For the same compound, the Cmax in series [2] (plasma, blood) is 0.00654 µg/mL; in series [2] (colon), 1.03 µg/mL; in series [2] (ileum), 4.3 µg/mL. Further, the AUC(0-t) was 0.0104 µg·h/mL in series [2] (plasma, blood); 3.39 µg·h/mL in series [2] (colon); 10.7 µg·h/mL in series [2] (ileum). Also, the MRT in series [2] (plasma, blood) turned out to be 1.77 h; in series [2] (colon), 3.82 h; in series [2] (ileum) it was 2.69 h. Also, the Tmax in series [2] (plasma, blood) worked out at 2 h; in series [2] (colon), 3 h; in series [2] (ileum) it was 3 h.

As for `Cc1cc(Nc2nc(N[C@@H]3C[C@@H]4CN(CCC#N)C[C@@H]4C3)nc3ccsc23)n[nH]1` [Embodiment 299, 3-(cis-5-((4-((5-methyl-1H-pyrazol-3-yl)amino)thieno[3,2-d]pyrimidin-2-yl)amino)hexahydrocyclopentadieno[c]pyrrole-2(1H)-yl)propionitrile], the half-inhibitory concentration (IC50) at JAK1 was found to be 0.28 nM. Also, the concentration for half-maximal inhibition (IC50) on TYK2 was found to be 0.56 nM. Moreover, the IC50 in series [1] is 2.46 nM. In addition, in series [2] (plasma, blood), the Cmax came to 0.00601 µg/mL, the AUC(0-t) was 0.0106 µg·h/mL, the AUC(0-inf) was found to be 0.0178 µg·h/mL and the half-life is 3.76 h. Moreover, in series [2] (plasma, blood), the mean residence time MRT was found to be 1.92 h and the time to peak (Tmax) amounted to 0.5 h. For the same compound, in series [2] (colon), the Cmax was 0.295 µg/mL, the AUC(0-t) was found to be 0.948 µg·h/mL, the MRT amounted to 4.94 h and the Tmax was found to be 7 h. Moreover, in series [2] (ileum), the Cmax came to 0.531 µg/mL, the AUC(0-t) turned out to be 1.32 µg·h/mL, the AUC(0-inf) was determined as 1.35 µg·h/mL and the half-life is 0.89 h. In addition, in series [2] (ileum), the MRT is 3.37 h and the time of peak concentration (Tmax) was found to be 3 h.
